Measurements from US20250340569A1, “INHIBITORS OF KIF18A AND USES THEREOF” (Insilico Medicine IP Limited, priority 2023, published 2025).

Experiments:
Kif18A = target: T1, Kif18A (Homo sapiens, UniProt Q8NI77); experiment: KIF18A assay (ADP Glo); conditions: biochemical assay, ADP Glo luminescence
T1 sequence (Q8NI77 1-898): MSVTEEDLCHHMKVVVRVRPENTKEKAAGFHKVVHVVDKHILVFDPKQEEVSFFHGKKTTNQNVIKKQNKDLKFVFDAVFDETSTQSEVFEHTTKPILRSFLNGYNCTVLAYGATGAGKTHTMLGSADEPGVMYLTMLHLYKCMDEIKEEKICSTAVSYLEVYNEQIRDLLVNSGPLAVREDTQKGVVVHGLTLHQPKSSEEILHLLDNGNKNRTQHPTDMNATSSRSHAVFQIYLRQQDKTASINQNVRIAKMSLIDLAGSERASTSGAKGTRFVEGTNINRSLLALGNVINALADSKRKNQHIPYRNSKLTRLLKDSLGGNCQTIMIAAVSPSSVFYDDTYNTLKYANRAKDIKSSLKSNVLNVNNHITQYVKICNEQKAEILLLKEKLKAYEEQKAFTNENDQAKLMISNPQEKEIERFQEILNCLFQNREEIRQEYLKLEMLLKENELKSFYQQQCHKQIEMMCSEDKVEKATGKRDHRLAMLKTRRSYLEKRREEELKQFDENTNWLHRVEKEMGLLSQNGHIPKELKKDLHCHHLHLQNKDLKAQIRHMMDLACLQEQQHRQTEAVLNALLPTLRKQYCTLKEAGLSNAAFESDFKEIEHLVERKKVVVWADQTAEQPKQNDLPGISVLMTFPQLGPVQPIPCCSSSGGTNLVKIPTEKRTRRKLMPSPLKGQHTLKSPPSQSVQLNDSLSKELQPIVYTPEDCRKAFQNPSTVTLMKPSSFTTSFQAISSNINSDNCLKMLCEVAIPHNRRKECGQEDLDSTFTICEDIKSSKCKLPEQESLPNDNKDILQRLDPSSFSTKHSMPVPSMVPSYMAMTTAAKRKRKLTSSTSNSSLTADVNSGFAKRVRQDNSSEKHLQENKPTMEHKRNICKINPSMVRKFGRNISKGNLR
Protocol: The KIF18A assay was performed as follows:
1.1. Prepared 1× Kinase Buffer
• a) Added 40 μL test compound to 384-well dilution plate • b) Diluted compound 1:3 in succession in DMSO for each column for 10 pts • c) Transferred 0.1 μL diluted compound solution to 384 assay plate using Echo, each column containing 2 replicates • d) Added 5 μL enzyme working solution to 384-well assay plate, centrifuge 1000 RPM for 1 min e) Incubated at 25° C. for 15 min • f) Added 5 μL ATP working solution to initiate reaction • g) Incubated at 25° C. for 60 min • h) Added 10 μL ADP Glo reagent, centrifuge 1000 RPM for 1 min • i) Incubated at 25° C. for 60 min • j) Added 20 μL kinase detection reagent, centrifuge 1000 RPM for 1 min • k) Incubated at 25° C. for 60 min • l) Read Luminescence Signal on Envision 2104 plate reader.
1.3. Data Analysis—Calculated IC50 and Plot Dose-Response Curve of Compounds:
Calculated IC50 by fitting % Inhibition values and log of compound concentrations to nonlinear regression (dose response−variable slope) with GraphPad 6.0.
[formula] • X: log of inhibitor concentration; Y: % Inhibition

OVCAR-3 = experiment: OVCAR3 CTG assay; type: cell-based; conditions: Homo sapiens, OVCAR-3, 144 h; CellTiter-Glo, 6 days incubation
Outline: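 OVCAR-3 cells plated overnight, then exposed to test compounds for 6 days at 37 °C, 5% CO2; 2 mM DMSO working stock diluted 200-fold overall, staurosporine as control. Viability read by CellTiter-Glo luminescence after 10 min lysis and 10 min room-temperature stabilisation.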

IC50 (Kif18A) [nM] | IC50 (OVCAR-3) [nM] | Structure (SMILES)
10 to 100 | < 10 | Cc1cc2nc(n1)NCCCOCC1(C)CCN(CC1)c1cc(S(=O)(=O)NC(C)(C)C)ccc1C(=O)N2 [EX25]
10 to 100 | 10 to 100 | CC1CNc2cc(ccn2)NC(=O)c2ccc(NS(=O)(=O)CCO)cc2N2CCC(C(F)(F)F)(CC2)COC1 (stereo not drawn) [EX57]
100 to 1000 | 1000 to 10000 | Cc1cc2nc(n1)NCCOC[C@@H]1CCC[C@H](COc3cc(NS(=O)(=O)CCO)ccc3C(=O)N2)C1 (relative stereo) [EX106]

The next lines start with the compound.

Structure (SMILES) | IC50 (Kif18A) [nM] | IC50 (OVCAR-3) [nM]
Cc1cc2nc(n1)N(C)CCCOCC1(C)CCN(CC1)c1cc(NS(=O)(=O)CCO)ccc1C(=O)N2 [EX06] | < 10 | 100 to 1000
Cc1cc2nc(n1)NCCCOCC1(C(F)(F)F)CCN(CC1)c1cc(NS(=O)(=O)CCO)ccc1C(=O)N2 [EX17] | < 10 | < 10
C[C@@H]1CCCC2(C(F)F)CCN(CC2)c2cc(NS(=O)(=O)CCO)ccc2C(=O)Nc2cccc(n2)NC1 [EX102-A] | < 10 | 10 to 100
